This passage reports GI50 and TGI results from PubChem BioAssay (NCI).

Among the test systems are OVCAR-8 ovarian; HCC-2998 colon; PC-3 prostate; CAKI-1 renal; HOP-92 NSCLC; ACHN renal; EKVX NSCLC; SR leukemia; LOX IMVI melanoma; OVCAR-4 ovarian.
What all share (assay): NCI-60 cell line screen, 48 h

“And” between values parts separate entries of the source, which are not always exact repeats. Equal entries are not always repeated.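 The compound was tested at five concentrations on cells cultured in 96-well plates, with a 48-hour exposure period. Here, GI50 denotes the concentration required for 50% inhibition of growth. TGI denotes the concentration required for complete inhibition of growth.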

As to `CN1CCN(Cc2ccc(NC(=O)c3ccc(C(C)(C)C)c(C#Cc4cnc5cccnn45)c3)cc2C(F)(F)F)CC1`, the GI50 in the experiment on OVCAR-8 ovarian is 2.58 µM; in the experiment on HCC-2998 colon, 1.83 µM; with PC-3 prostate, 1.89 µM; in the experiment on CAKI-1 renal, 12.1 µM; in the experiment with HOP-92 NSCLC, 12.1 µM; in the experiment with ACHN renal it was 1.99 µM. Further, the GI50 in the experiment on EKVX NSCLC is 5.8 µM; in the experiment with SR leukemia, 0.199 µM; in the experiment on LOX IMVI melanoma, 1.52 µM; in the experiment with OVCAR-4 ovarian it was 4.64 µM. Further, the TGI with OVCAR-8 ovarian stood at 5.61 µM; with HCC-2998 colon, 3.38 µM; in the experiment with PC-3 prostate it was 4.12 µM; in the experiment with CAKI-1 renal, 26.7 µM; in the experiment with HOP-92 NSCLC, 27.1 µM; in the experiment on ACHN renal it was 3.69 µM. Further, the TGI with EKVX NSCLC stood at 19.3 µM; in the experiment with SR leukemia, 0.512 µM; in the experiment with LOX IMVI melanoma, 2.87 µM; in the experiment with OVCAR-4 ovarian, 19.7 µM.

For `Cc1c(-c2nc(N)nc(C3CC3)c2C)nc(N)nc1C1CC1`, the TGI with OVCAR-8 ovarian, with HCC-2998 colon, in the experiment with PC-3 prostate, in the experiment on CAKI-1 renal, with HOP-92 NSCLC and in the experiment on ACHN renal was over 100 µM in each case. Also, the TGI with EKVX NSCLC, in the experiment on SR leukemia, with LOX IMVI melanoma and in the experiment with OVCAR-4 ovarian was over 100 µM in each case.

For the compound `Cc1ccc([N+](=O)[O-])c2c(NCCCN(C)C)ccnc12`, the TGI is over 100 µM in the experiment with OVCAR-8 ovarian; 45.5 µM in the experiment on HCC-2998 colon; over 100 µM with PC-3 prostate; over 100 µM in the experiment with CAKI-1 renal; over 100 µM with HOP-92 NSCLC; over 100 µM with ACHN renal. The TGI with EKVX NSCLC is over 100 µM; in the experiment on SR leukemia, over 100 µM; in the experiment with LOX IMVI melanoma, over 100 µM; in the experiment with OVCAR-4 ovarian, over 76.9 µM.

Regarding `CS(=O)(=O)Nc1ccc(-c2ccc3c(NC(=O)C4CC4)n[nH]c3c2)cc1`, the GI50 with OVCAR-8 ovarian, in the experiment on HCC-2998 colon, in the experiment on PC-3 prostate, in the experiment with CAKI-1 renal, in the experiment with HOP-92 NSCLC and in the experiment with ACHN renal was over 25 µM throughout. Besides, the GI50 in the experiment on EKVX NSCLC was over 25 µM; in the experiment on SR leukemia it was over 21.2 µM; in the experiment with LOX IMVI melanoma, over 25 µM; with OVCAR-4 ovarian, 7.2 µM. Moreover, the TGI in the experiment with OVCAR-8 ovarian, with HCC-2998 colon, in the experiment with PC-3 prostate, in the experiment with CAKI-1 renal, in the experiment on HOP-92 NSCLC and with ACHN renal was over 25 µM each time. The TGI with EKVX NSCLC, in the experiment on SR leukemia, in the experiment on LOX IMVI melanoma and with OVCAR-4 ovarian was over 25 µM each time.

Regarding `COc1ccc(NC2=C(Br)C(=O)C(C)=C(C)C2=O)cc1`, the GI50 is 2.22 µM in the experiment with OVCAR-8 ovarian; 12.4 µM with HCC-2998 colon; 2.78 µM with PC-3 prostate; 1.72 µM with CAKI-1 renal; 1.55 µM with HOP-92 NSCLC; 2.87 µM in the experiment with ACHN renal. In addition, the GI50 is 1.69 µM in the experiment with EKVX NSCLC, 3.21 µM in the experiment with SR leukemia, 1.67 µM in the experiment on LOX IMVI melanoma and 1.6 µM in the experiment with OVCAR-4 ovarian. The TGI in the experiment with OVCAR-8 ovarian stood at 5.31 µM; in the experiment with HCC-2998 colon, 26.5 µM; in the experiment on PC-3 prostate, 9.05 µM; with CAKI-1 renal it was 3.11 µM; in the experiment with HOP-92 NSCLC, 3.08 µM; in the experiment with ACHN renal, 8.76 µM. In addition, the TGI is 3.12 µM in the experiment on EKVX NSCLC, over 100 µM with SR leukemia, 3.17 µM in the experiment with LOX IMVI melanoma and 2.97 µM in the experiment with OVCAR-4 ovarian.

In the case of `Oc1ccc(Cc2ccccc2)c2cccnc12`, the GI50 with OVCAR-8 ovarian was 2.35 µM; in the experiment on HCC-2998 colon, 3.65 µM; in the experiment with PC-3 prostate, 2.7 µM; with CAKI-1 renal, 2.22 µM; with HOP-92 NSCLC, 1.02 µM; in the experiment with ACHN renal, 1.21 µM. Also, the GI50 was 2.32 µM in the experiment with EKVX NSCLC, 0.673 µM in the experiment with SR leukemia, 1.53 µM in the experiment on LOX IMVI melanoma and 6.35 µM with OVCAR-4 ovarian. For the same compound, the TGI in the experiment on OVCAR-8 ovarian was over 100 µM; in the experiment on HCC-2998 colon, 16.6 µM; in the experiment with PC-3 prostate it was 67.4 µM; in the experiment with CAKI-1 renal it was 8.96 µM; in the experiment with HOP-92 NSCLC, 39.6 µM; in the experiment with ACHN renal it was 9.53 µM. The TGI was over 100 µM in the experiment on EKVX NSCLC, over 100 µM in the experiment with SR leukemia, 19 µM in the experiment with LOX IMVI melanoma and over 100 µM with OVCAR-4 ovarian.

`CC(=O)[CH-]C(C)=O.CC(=O)[CH-]C(C)=O.N=CC=N.[Sn+2]`: the GI50 in the experiment with OVCAR-8 ovarian was 2.11 µM; with HCC-2998 colon it was 12.5 µM; in the experiment on PC-3 prostate, 5.03 µM; with CAKI-1 renal, 2.54 µM; in the experiment on HOP-92 NSCLC, 1.74 µM; in the experiment with ACHN renal, 3.2 µM. Besides, the GI50 is 6.42 µM in the experiment on EKVX NSCLC, 1.06 µM in the experiment with SR leukemia, 1.57 µM in the experiment on LOX IMVI melanoma and 2.62 µM in the experiment with OVCAR-4 ovarian. For the same compound, the TGI stood at 4.74 µM in the experiment with OVCAR-8 ovarian; 25.2 µM with HCC-2998 colon; 17.6 µM in the experiment on PC-3 prostate; 7.23 µM in the experiment on CAKI-1 renal; 3.79 µM in the experiment with HOP-92 NSCLC; 9.77 µM with ACHN renal. In addition, the TGI amounted to 19.4 µM in the experiment with EKVX NSCLC, 5.3 µM in the experiment on SR leukemia, 2.97 µM in the experiment on LOX IMVI melanoma and 10.5 µM in the experiment on OVCAR-4 ovarian.

With `COc1ccccc1C(=O)c1ccc2ccccc2c1`, the TGI in the experiment on OVCAR-8 ovarian was 75.9 µM; in the experiment on HCC-2998 colon it was over 100 µM; with PC-3 prostate, over 100 µM; with CAKI-1 renal it was 49.2 µM; in the experiment on HOP-92 NSCLC, 66.5 µM; with ACHN renal it was over 100 µM. Further, the TGI in the experiment with EKVX NSCLC is 77.8 µM; with SR leukemia, 16.1 µM; in the experiment on LOX IMVI melanoma, 31.7 µM; in the experiment with OVCAR-4 ovarian, over 100 µM.

In the case of `CC(=O)O[C@H]1C(=O)[C@@]2(C)[C@H]([C@H](OC(=O)c3ccccc3)[C@]3([O-])C[C@H](OC(=O)[C@H]([O-])[C@@H](NC(=O)c4ccccc4)c4ccccc4)C(C)=C1C3(C)C)[C@]1(OC(C)=O)CO[C@@H]1C[C@@H]2[O-].[Fe+3]`, the GI50 was 0.0971 µM and 0.0721 µM with OVCAR-8 ovarian; 0.0365 µM with HCC-2998 colon; 0.235 µM and 0.219 µM with PC-3 prostate; 2.41 µM and 3.53 µM in the experiment with CAKI-1 renal; > 65 µM and 10.5 µM in the experiment with HOP-92 NSCLC; 2.48 µM and 2.96 µM in the experiment on ACHN renal. Further, the GI50 is 0.0268 µM and 0.199 µM with SR leukemia; 0.0219 µM and 0.107 µM in the experiment with LOX IMVI melanoma; 0.719 µM with OVCAR-4 ovarian. Also, the TGI with OVCAR-8 ovarian was 15.5 µM and 27.3 µM; in the experiment on HCC-2998 colon, 0.295 µM; in the experiment with PC-3 prostate, 65 µM and > 100 µM; in the experiment with CAKI-1 renal, 54.5 µM and > 100 µM; in the experiment on HOP-92 NSCLC it was > 65 µM and 35.7 µM; in the experiment with ACHN renal, 65 µM and > 100 µM. Besides, the TGI was 65 µM and > 100 µM in the experiment with EKVX NSCLC; over 100 µM with OVCAR-4 ovarian.
